Measurements reported in patent US20260123631A1, “NATURAL PORPHIN SALT AND USE THEREOF AS PLANT GROWTH REGULATOR AND PLANT IMMUNITY INDUCER” (NANJING BOSTEC BIOLOGICAL ENGINEERING CO., LTD, priority 2022, published 2026).
Where two headings read alike, the source gives them in different places.

Experiments:
[1] = Stability of sample solutions in the dark/under light; type: physicochemical
Procedure: Determination: An appropriate amount of a salt sample was taken, dissolved with water, and diluted to prepare a test solution with a concentration of about 10 ppm. An acidic reference substance (extremely-insoluble in water) was prepared with a 30% to 50% ethanol aqueous solution into a test solution with a concentration of about 10 ppm.
Each test solution was scanned by an ultraviolet spectrophotometer (at 0 h) for absorbance in a range of 200 nm to 800 nm immediately after being prepared. Then a test solution of each sample was divided into two parts. One part was placed at room temperature of 25° C. in the dark, and the other part was placed under light with a light intensity of 30,000 lux. At 1 h, 2 h, and 3 h, a solution sample was collected and scanned for absorbance respectively.
An absorbance value of a maximum absorption peak at 0 h (starting) of each test solution was set as a relative content of 100%, and a ratio of an absorbance value at each time point to the absorbance value at 0 h was calculated to determine a relative content, %.

chlorophyllase = assay: In vitro chlorophyllase-inhibiting activity test; type: biochemical, mung bean
Procedure: A chlorophyllase inhibition rate of a salt sample solution at each concentration was determined, and an IC50 value for a chlorophyllase inhibition activity of a salt sample was calculated.

[2] = Water solubility of the prepared salts; type: physicochemical
[3] = Dilution and pH determination for sample solutions; type: physicochemical
Procedure: Method: 0.2500 g of a sample was accurately weighed and added to a 25 mL volumetric flask, dissolved with purified water, and diluted to a specified scale to prepare a 1.00% (10,000.0 ppm) initial solution. The initial solution was diluted with purified water in different ratios to prepare a series of solutions with a concentration of 1,000.0 ppm to 0.1 ppm. A pH value of each sample was determined three times.

wheat = assay: Germination of wheat and growth of seedlings; type: in vivo, wheat (Huaimai 35); conditions: for Root length / Root number / Root weight / Seedling height / Seedling weight: wheat seedlings
Procedure: Method: 3 replicates were set for each treatment. 50 full seeds with a consistent size were selected each time for each sample, disinfected with sodium hypochlorite for 5 min, rinsed with clear water, and placed in a plastic box filled with 100 g of a sand. 25 mL of a prepared sample solution was poured into the plastic box, and the seeds were arranged regularly. The plastic box was covered with a lid, and then incubated in a 25° C. incubator. The germination was determined when a length of a sprout of a wheat seed exceeded a half of a diameter (long axis) of the wheat seed (determination criterion). According to the growth of wheat, the germ exposure of seeds and the number of germinated seeds were recorded every day. On day 6, 10 wheat seedlings were randomly selected, and a root length, a plant height, and a root number were determined. On day 7, a root weight and an aboveground part weight were determined. All index data was produced based on 3 replicates.

[4] = under light 30,000 lux, 1 h, salts in water, acidic reference in 30% to 50% ethanol
[5] = under light 30,000 lux, 2 h, salts in water, acidic reference in 30% to 50% ethanol
[6] = under light 30,000 lux, 3 h, salts in water, acidic reference in 30% to 50% ethanol
[7] = substrate chlorophyll 120 ppm, sample 0.3 ppm to 30.0 ppm

| Compound | Relative content [1, 4] [%] | Relative content [1, 5] [%] | Relative content [1, 6] [%] | IC50 for chlorophyllase inhibition activity (chlorophyllase; [7]) [ppm] | solubility in water [2] | also measured |
| --- | --- | --- | --- | --- | --- | --- |
| magnesium iron chlorin [Example 23] | 74.25 | 66.34 | 62.11 | 5.06 |  |  |
| ammonium zinc chlorophyllin [Example 35] |  |  |  | 18.06 |  |  |
| ammonium iron chlorin [Example 22] |  |  |  | 5.58 |  |  |
| calcium iron chlorin [Example 24] |  |  |  | 5.11 |  |  |
| manganese iron chlorin [Example 27] | 72.13 | 68.26 | 63.87 | 5.20 | slightly soluble |  |
| calcium copper chlorophyllin [Example 46] |  |  |  | 13.49 |  |  |
| C=CC1=C(C)c2cc3[n-]c(cc4nc(cc5[n-]c(cc1n2)c(C)c5C=C)C(C)=C4CCC(=O)[O-])c(CCC(=O)[O-])c3C.[Cl-].[Fe+3].[Na+].[Na+] [Example 11, sodium chlorhematin] | 74.11 | 69.68 | 67.73 |  | easily soluble | pH ([3]; 20 ppm solution in water (Comparative Test 2)): 7.5 |
| zinc iron chlorin [Example 28] | 71.19 | 65.23 | 61.37 | 5.66 | slightly soluble |  |
| copper iron chlorophyllin [Example 34] | 72.13 | 68.58 | 65.03 | 5.04 | slightly soluble |  |
| potassium protoporphyrin [Example 1] | 65.90 | 56.97 | 58.17 |  | easily soluble | Germination rate of wheat (wheat; 0.0025 ppm): 94.7%; Root length (wheat; 0.0025 ppm): 9.63 cm; Root number (wheat; 0.0025 ppm): 5.4; Root weight (wheat; 0.0025 ppm): 0.1230 g; Seedling height (wheat; 0.0025 ppm): 8.95 cm; Seedling weight (wheat; 0.0025 ppm): 0.241 g; Germination rate of wheat (wheat; 0.0250 ppm): 95.3%; Root length (wheat; 0.0250 ppm): 10.17 cm; Root number (wheat; 0.0250 ppm): 5.2; Root weight (wheat; 0.0250 ppm): 0.0976 g; Seedling height (wheat; 0.0250 ppm): 9.48 cm; Seedling weight (wheat; 0.0250 ppm): 0.242 g; Germination rate of wheat (wheat; 0.2500 ppm): 90.7%; Root length (wheat; 0.2500 ppm): 8.68 cm; Root number (wheat; 0.2500 ppm): 5.3; Root weight (wheat; 0.2500 ppm): 0.1134 g; Seedling height (wheat; 0.2500 ppm): 7.64 cm; Seedling weight (wheat; 0.2500 ppm): 0.228 g |
| ammonium copper chlorophyllin [Example 44] |  |  |  |  |  | IC50 for chlorophyllase inhibition activity (chlorophyllase): 13.68 ppm |
| ammonium iron chlorophyllin [Example 31] |  |  |  | 5.43 |  |  |
| manganese zinc chlorophyllin [Example 40] |  |  |  |  |  | IC50 for chlorophyllase inhibition activity (chlorophyllase): 18.10 ppm |
| calcium zinc chlorophyllin [Example 37] |  |  |  |  |  | IC50 for chlorophyllase inhibition activity (chlorophyllase): 17.78 ppm |
| C=CC1=C(C)c2cc3[n-]c(cc4nc(cc5[n-]c(cc1n2)c(C)c5C=C)C(C)=C4CCC(=O)[O-])c(CCC(=O)[O-])c3C.[Cl-].[Fe+3].[Mg+2] [Example 13, magnesium chlorhematin] | 82.11 | 81.84 | 75.61 |  | soluble | pH ([3]; 0.1 ppm in purified water): (6.92); pH ([3]; 1.0 ppm in purified water): (7.27); pH ([3]; 10.0 ppm in purified water): (7.63); pH ([3]; 20.0 ppm in purified water): (7.77); pH ([3]; 30.0 ppm in purified water): (7.87); pH ([3]; 100.0 ppm in purified water): (8.01); Relative content ([1]; in the dark, 25° C., 0 h): 100.00%; Relative content ([1]; in the dark, 25° C., 1 h): 100.10%; Relative content ([1]; in the dark, 25° C., 2 h): 99.76%; Relative content ([1]; in the dark, 25° C., 3 h): 99.38%; Relative content ([1]; under light 30,000 lux, 0 h): 100.00% |
| sodium copper chlorophyllin [Copper chlorophyllin Na^+] | 72.50 | 67.03 | 66.30 | 13.72 |  |  |

Now from value to compound, other results behind:

| Relative content [1, 4] [%] | Relative content [1, 5] [%] | Relative content [1, 6] [%] | IC50 for chlorophyllase inhibition activity (chlorophyllase; [7]) [ppm] | solubility in water [2] | Compound | also measured |
| --- | --- | --- | --- | --- | --- | --- |
| 52.48 | 46.08 | 41.51 | 15.55 |  | potassium zinc chlorophyllin [Zinc chlorophyllin K^+] |  |
| 83.53 | 77.11 | 78.11 | 12.89 | easily soluble | potassium copper chlorophyllin [Example 43] |  |
| 53.53 | 45.74 | 39.42 | 16.37 |  | magnesium zinc chlorophyllin [Example 36] |  |
| 60.05 | 46.81 | 42.89 | 5.98 | easily soluble | potassium chlorin [Example 52] |  |
|  |  |  | 6.05 |  | ammonium chlorin [Example 54] |  |
| 85.27 | 82.15 | 80.17 | 6.18 | slightly soluble | copper chlorin [Example 61] |  |
| 74.46 | 68.03 | 66.86 | 11.87 |  | magnesium copper chlorophyllin [Example 45] |  |
| 69.84 | 65.37 | 60.04 | 14.19 | slightly soluble | zinc copper chlorophyllin [Example 50] |  |
| 55.66 | 50.60 | 45.30 | 6.37 | slightly soluble | zinc chlorin [Example 60] |  |
|  |  |  | 6.43 |  | calcium chlorin [Example 56] |  |
| 76.34 | 72.11 | 67.37 | 13.85 | soluble | manganese copper chlorophyllin [Example 47] |  |
| 81.00 | 74.21 | 63.35 | 5.38 |  | calcium iron chlorophyllin [Iron chlorophyllin Ca^2+] |  |
| 43.47 | 35.26 | 30.41 | 6.22 |  | magnesium chlorin [Example 55] |  |
| 70.13 | 61.00 | 58.68 | 5.55 |  | manganese iron chlorophyllin [Iron chlorophyllin Mn^2+] |  |
| 51.90 | 42.51 | 37.81 | 15.91 |  | sodium zinc chlorophyllin [Zinc chlorophyllin Na^+] |  |
| 69.34 | 63.04 | 60.46 | 5.16 |  | zinc iron chlorophyllin [Iron chlorophyllin Zn^2+] |  |
